Where a name gives a salt, the structure may show the parent alone.
For O=C(Nc1cccc2c1C(=O)N(CCC(=O)N1CCN(c3ccncc3)CC1)C2)c1ccc(Cl)s1 (as salt: TFA) [Example 88], the melting point was 118 °C. O=C(Nc1cccc2c1C(=O)N(CCC(=O)N1CCN(c3ccncc3)CC1)C2=O)c1ccc(Cl)s1 [Example 5, 5-Chloro-N-(1,3-dioxo-2-{3-oxo-3-[4-(4-pyridinyl)piperazino]propyl}-2,3-dihydro-1H-isoindol-4-yl)-2-thiophenecarboxamide] gave a melting point of 167 °C. Work on O=C(Nc1cccc2c1C(=O)N(CC(=O)N1CCN(c3cnccn3)CC1)C2=O)c1ccc(Cl)s1 [Example 6] yielded a melting point of 237 °C. O=C(Nc1cccc2c1C(=O)N(CC(=O)N1CCN(c3ccccn3)CC1)C2=O)c1ccc(Cl)s1 [Example 7] gave a melting point of 203 °C. Compound Cc1cccc(N2CCN(C(=O)CN3C(=O)c4cccc(NC(=O)c5ccc(Cl)s5)c4C3=O)CC2)c1 [Example 8] has a melting point of 136 °C. In the case of N#Cc1ccc(N2CCN(C(=O)CN3C(=O)c4cccc(NC(=O)c5ccc(Cl)s5)c4C3=O)CC2)nc1 [Example 9], the melting point is reported as 169 °C (dec.). Work on O=C(Nc1cccc2c1C(=O)N(CC(=O)N1CCN(c3cccc4[nH]ccc34)CC1)C2=O)c1ccc(Cl)s1 [Example 10] yielded a melting point of 209 °C. For O=C(Nc1cccc2c1C(=O)N(CC(=O)N1CCN(c3ncnc4sccc34)CC1)C2=O)c1ccc(Cl)s1 [Example 12], the melting point was 277 °C. Compound N#Cc1nccnc1N1CCN(C(=O)CN2C(=O)c3cccc(NC(=O)c4ccc(Cl)s4)c3C2=O)CC1 [Example 13] has a melting point of 242 °C. With Cc1cccc(N2CCN(C(=O)CN3C(=O)c4cccc(NC(=O)c5ccc(Cl)s5)c4C3=O)CC2)n1 [Example 14] the melting point was 241 °C. With CC(C)NC(=O)CN1CCN(C(=O)CN2C(=O)c3cccc(NC(=O)c4ccc(Cl)s4)c3C2=O)CC1 [Example 16] the melting point was 124 °C. CN(C)C(=O)CN1CCN(C(=O)CN2C(=O)c3cccc(NC(=O)c4ccc(Cl)s4)c3C2=O)CC1 [Example 17] showed a melting point of 189 °C. For O=C(Nc1cccc2c1C(=O)N(CC(=O)N1CCN(CC(=O)N3CCCC3)CC1)C2=O)c1ccc(Cl)s1 [Example 19], the melting point was 122 °C. In the case of O=C(Nc1cccc2c1C(=O)N(CC(=O)N1CCN(CCCN3CCCCC3)CC1)C2=O)c1ccc(Cl)s1 [Example 20], the melting point is reported as 104 °C. With O=C(Nc1cccc2c1C(=O)N(CC(=O)N1CCN(CC(=O)N3CCOCC3)CC1)C2=O)c1ccc(Cl)s1 [Example 21] the melting point was 230 °C. In the case of COCCN1CCN(C(=O)CN2C(=O)c3cccc(NC(=O)c4ccc(Cl)s4)c3C2=O)CC1 [Example 22], the melting point is reported as 158 °C. Work on O=C(Nc1cccc2c1C(=O)N(CC(=O)N1CCC(NCc3cccnc3)CC1)C2=O)c1ccc(Cl)s1 [Example 24] yielded a melting point of 220 °C. Nc1cnccc1N1CCN(C(=O)CN2C(=O)c3cccc(NC(=O)c4ccc(Cl)s4)c3C2=O)CC1 [Example 27] showed a melting point of 178 °C. Compound O=C(CN1C(=O)c2cccc(NC(=O)c3ccc(Cl)s3)c2C1=O)NCC1CCN(c2ccncc2)CC1 [Example 28] has a melting point of 256 °C. In the case of O=C(Nc1cccc2c1C(=O)N(CC(=O)N1CCN(c3ccc4c(c3)OCO4)CC1)C2=O)c1ccc(Cl)s1 [Example 32], the melting point is reported as 203 °C. Work on O=C(Nc1cccc2c1C(=O)N(CC(=O)N1CCC(CO)CC1)C2=O)c1ccc(Cl)s1 [Example 36, 5-Chloro-N-(2-{2-[4-(hydroxymethyl)piperidino]-2-oxoethyl}-1,3-dioxo-2,3-dihydro-1H-isoindol-4-yl)-2-thiophenecarboxamide] yielded a melting point of 198 °C. O=C(Nc1cccc2c1C(=O)N(C1CCN(c3ccncc3)CC1)C2=O)c1ccc(Cl)s1 [Example 63, 5-Chloro-N-{1,3-dioxo-2-[1-(4-pyridinyl)-4-piperidinyl]-2,3-dihydro-1H-isoindol-4-yl}-2-thiophenecarboxamide] showed a melting point of 214 °C. Work on O=C(Nc1cccc2c1C(=O)N(CC(=O)N1CCC(CO)CC1)C2O)c1ccc(Cl)s1 (stereo not shown) [Example 89] yielded a melting point of 233 °C. For O=C(Nc1cccc2c1C(O)N(CC(=O)N1CCC(CO)CC1)C2=O)c1ccc(Cl)s1 (stereo not shown) [Example 90], the melting point was 234 °C (dec.). Work on O=C(Nc1cccc2c1CN(CC(=O)N1CCC(CO)CC1)C2=O)c1ccc(Cl)s1 [Example 92] yielded a melting point of 209 °C.

From patent US7482472B2, “Substituted isoindoles and their use” (Bayer Healthcare AG, priority 2002, dated 2009)
